Results on 15 molecules are retold here after ChEMBL document CHEMBL4842345, “Design, synthesis and biological evaluation of tanshinone IIA-based analogues: Potent inhibitors of microtubule formation and angiogenesis” (Eur J Med Chem, 2021).

One data set deals with HepG2. Kind of data set: Antiproliferative activity against human HepG2 cells assessed as reduction in cell viability measured after 72 hrs by MTT assay. The format is functional, cell-based. To be noted: HepG2, 72 h. For orientation: Tetrazolium dyes change colour on reduction, which living cells bring about.
The subject of a further data set is HeLa. As to the kind of experiment: Antiproliferative activity against human HeLa cells assessed as reduction in cell viability measured after 72 hrs by MTT assay. The format is functional, cell-based.
The next data set relates to MCF7. As to the kind of experiment: Antiproliferative activity against human MCF7 cells assessed as reduction in cell viability measured after 72 hrs by MTT assay. The format is functional, cell-based. The conditions noted are these: MCF7, 72 h.
The subject of the next data set is MGC-803. Kind of data set: Antiproliferative activity against human MGC-803 cells assessed as reduction in cell viability measured after 72 hrs by MTT assay. The format is functional, cell-based. The conditions noted are these: MGC-803, 72 h.
The next data set concerns U-937. Kind of data set: Antiproliferative activity against human U-937 cells assessed as reduction in cell viability measured after 72 hrs by MTT assay. Type of data set: functional, cell-based. The conditions noted are these: U-937, 72 h.
A further data set has as its system A549. Kind of data set: Antiproliferative activity against human A549 cells assessed as reduction in cell viability measured after 72 hrs by MTT assay. The conditions noted are these: A549, 72 h. Type of data set: functional, cell-based.
Data set [1] can be described thus: Kinetic solubility of the compound at pH 2 by nephelometry. Type of data set: physicochemical. The conditions noted are these: buffer, read-out: Kinetic_solubility.
Data set [2] is described as follows: Kinetic solubility of the compound at pH 6.5 by nephelometry. The format is physicochemical. The conditions noted are these: buffer, read-out: Kinetic_solubility.
Data set [3] can be described thus: Metabolic stability in human liver microsomes assessed as degradation half life. Type of data set: ADME, Microsome. The conditions noted are these: liver microsomes. (In general: Liver microsomes are a subcellular fraction often used to study metabolism.)
A short description of data set [4]: Intrinsic clearance in human liver microsome. To be noted: liver microsomes, read-out: CLH. Type of data set: ADME, microsomes.

SMILES strings stand for the structures. Where only a bound is given, the exact number is not on record here.

Regarding `COc1ccc2c(c1)C(=O)C(=O)c1cc(C)oc1-2`, the IC50 (in general, the concentration needed to halve the response being measured) with HepG2 was 3480 nM; in the data set on HeLa it was 1380 nM; with MCF7, > 5000 nM; in the data set on MGC-803, > 5000 nM; with U-937 it was 3400 nM; in the data set with A549 it was 750 nM.

For the molecule `COc1cccc2c1-c1occ(C)c1C(=O)C2=O`, the IC50 in the data set with HepG2 is 3780 nM; with HeLa, 2330 nM; in the data set with MCF7, > 5000 nM; in the data set with MGC-803, 3910 nM; with U-937 it was > 5000 nM; in the data set on A549 it was 430 nM.

With `Cc1cc2c(o1)-c1ccc(C(C)C)cc1C(=O)C2=O`, the IC50 in the data set on HepG2 is 2410 nM; in the data set with HeLa, 2160 nM; in the data set on MCF7, 2420 nM; in the data set on MGC-803 it was 1970 nM; in the data set with U-937, 1660 nM; with A549, 2510 nM.

On to `Cc1cc2c(o1)-c1ccc3c(c1C(=O)C2=O)CCCC3(C)C`, for which the 50% inhibitory concentration (IC50) in the data set on HepG2 is 1220 nM; with HeLa it was 1170 nM; in the data set with MCF7, > 5000 nM; in the data set on MGC-803, 2800 nM; in the data set on U-937, 2690 nM; with A549, 200 nM.

On to `Cc1coc2c1C(=O)C(=O)c1c-2ccc2c1CCCC2(C)C` [TANSHINONE IIA], for which the IC50 is 4910 nM in the data set with HepG2; 3470 nM in the data set on HeLa; > 5000 nM in the data set with MCF7; > 5000 nM in the data set with MGC-803; > 5000 nM in the data set with U-937; 2200 nM in the data set on A549. The solubility kinetic in [1] and in data set [2] was < 5 µg/mL in each case. In addition, the half-life (commonly the time needed for the level to fall by half in the phase considered) in data set [3] came to 10 min. Also, in data set [4], the microsomal CLint is 45 µL/min/mg.

Take `Cc1coc2c1C(=O)C(=O)c1cc(O)ccc1-2`: the IC50 in the data set on HepG2, in the data set with HeLa, in the data set with MCF7, in the data set with MGC-803, in the data set with U-937 and in the data set with A549 was > 5000 nM each time.

On to `Cc1coc2c1C(=O)C(=O)c1cc(Cl)ccc1-2`, for which the concentration for half-maximal inhibition (IC50) came out at 1290 nM with HepG2; 1550 nM in the data set on HeLa; 4450 nM in the data set on MCF7; 2280 nM in the data set on MGC-803; 2530 nM in the data set with U-937; 1780 nM in the data set with A549.

In the case of `Cc1coc2c1C(=O)C(=O)c1cc(C(C)C)ccc1-2`, the half-inhibitory concentration (IC50) in the data set on HepG2 is 3270 nM; in the data set on HeLa, 4220 nM; in the data set with MCF7, 3570 nM; in the data set on MGC-803, > 5000 nM; in the data set on U-937, 2200 nM; with A549 it was 1500 nM.

As for `COc1cccc2c1-c1oc(C)cc1C(=O)C2=O`, the IC50 in the data set on HepG2 was 4750 nM; in the data set with HeLa it was 2100 nM; in the data set with MCF7 it was > 5000 nM; in the data set with MGC-803 it was > 5000 nM; in the data set on U-937, 3260 nM; with A549 it was 2740 nM.

As for `COc1ccc2c(c1)C(=O)C(=O)c1c(C)coc1-2`, the IC50 in the data set on HepG2 is > 5000 nM; with HeLa, 2820 nM; in the data set with MCF7, > 5000 nM; in the data set on MGC-803 it was 3950 nM; in the data set with U-937 it was 3670 nM; in the data set on A549 it was 940 nM.

Turning to `Cc1cc2c(o1)-c1ccccc1C(=O)C2=O`, the IC50 with HepG2 was 2770 nM; in the data set on HeLa, 1510 nM; with MCF7, 1290 nM; in the data set with MGC-803 it was 3540 nM; in the data set with U-937 it was 1580 nM; in the data set with A549, 2990 nM.

With `Cc1cc2c(o1)-c1c(O)cccc1C(=O)C2=O`, the IC50 in the data set on HepG2, in the data set on HeLa, in the data set on MCF7, in the data set on MGC-803, in the data set on U-937 and in the data set on A549 was > 5000 nM in each case.

With `Cc1coc2c1C(=O)C(=O)c1ccccc1-2`, the IC50 in the data set on HepG2 was 2060 nM; in the data set with HeLa it was 950 nM; in the data set with MCF7, 1580 nM; in the data set with MGC-803 it was 1920 nM; in the data set on U-937 it was 1190 nM; with A549, 850 nM.

`Cc1coc2c1C(=O)C(=O)c1cccc(O)c1-2`: the IC50 with HepG2, with HeLa, with MCF7, in the data set with MGC-803, in the data set on U-937 and in the data set with A549 was > 5000 nM each time.

On to `Cc1cc2c(o1)-c1ccc(O)cc1C(=O)C2=O`, for which the IC50 in the data set with HepG2 was 4010 nM; in the data set on HeLa, 2280 nM; in the data set with MCF7, > 5000 nM; in the data set on MGC-803, 2920 nM; in the data set with U-937, 3540 nM; with A549, 1780 nM.
